ChEMBL document CHEMBL1134089, “Arylsulphonyl hydroxamic acids: potent and selective matrix metalloproteinase inhibitors” (Bioorg Med Chem Lett, 2001)

Tests used:
Interstitial collagenase = biological target: T1, Interstitial collagenase (Homo sapiens, UniProt P03956); assay: Inhibition of Matrix metalloprotease-1
T1 sequence (P03956 whole entry): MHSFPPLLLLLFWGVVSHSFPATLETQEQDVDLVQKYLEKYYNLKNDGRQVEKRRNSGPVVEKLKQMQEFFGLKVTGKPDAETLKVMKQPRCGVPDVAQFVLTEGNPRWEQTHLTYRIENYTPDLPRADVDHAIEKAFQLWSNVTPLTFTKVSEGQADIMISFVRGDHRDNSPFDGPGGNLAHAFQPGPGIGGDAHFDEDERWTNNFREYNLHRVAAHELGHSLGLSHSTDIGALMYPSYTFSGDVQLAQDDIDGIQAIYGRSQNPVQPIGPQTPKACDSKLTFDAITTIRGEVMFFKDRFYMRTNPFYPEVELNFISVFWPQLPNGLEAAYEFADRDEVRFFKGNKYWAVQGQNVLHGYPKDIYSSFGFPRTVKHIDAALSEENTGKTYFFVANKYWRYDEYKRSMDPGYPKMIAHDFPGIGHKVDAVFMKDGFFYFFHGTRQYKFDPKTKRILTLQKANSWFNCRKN

[1] = biological target: Matrix metalloproteinase-9 (Homo sapiens, UniProt P14780); assay: Inhibition of Matrix metalloprotease-9
Stromelysin-1 = Stromelysin-1 (Homo sapiens, UniProt P08254); assay: Inhibition of Matrix metalloprotease-3
[2] = biological target: 72 kDa type IV collagenase (Homo sapiens, UniProt P08253); assay: Inhibition of Matrix metalloprotease-2
Neutrophil collagenase = Neutrophil collagenase (Homo sapiens, UniProt P22894); assay: Inhibition of Matrix metalloprotease-8
[3] = Inhibitory concentration required against shedding of TNF RII from stimulated PBMCs; assay type: functional
Mus musculus = assay: Percent inhibition against B16-F10 mouse melanoma tested in vivo at 30 mg/kg; assay type: functional
Rattus norvegicus [4] = assay: Percent inhibition against adjuvant arthritis in rats tested in vivo at 10 mg/kg; assay type: functional
[5] = Inhibitory concentration required against shedding of IL-1 RII from stimulated PBMCs; assay type: functional
[6] = (§1) Inhibitory concentration required against shedding of L-Selectin from stimulated PBMCs; assay type: functional, Homo sapiens
[7] = Inhibitory concentration required against shedding of IL6-R from stimulated PBMCs; assay type: functional
[8] = Inhibitory concentration required against shedding of TNF-alpha from stimulated PBMCs; assay type: functional
Rattus norvegicus [9] = assay: Plasma level evaluated in the rat after oral dosing of 10 mg/kg; assay type: ADME, organism-based; set-up: dose 10 mg/kg, route oral; details: in vivo
Rattus norvegicus [10] = assay: Percent inhibition against adjuvant arthritis in rats tested in vivo at 3 mg/kg; assay type: functional
[11] = as §1; assay type: functional

Chain of 72 kDa type IV collagenase (P08253 whole entry): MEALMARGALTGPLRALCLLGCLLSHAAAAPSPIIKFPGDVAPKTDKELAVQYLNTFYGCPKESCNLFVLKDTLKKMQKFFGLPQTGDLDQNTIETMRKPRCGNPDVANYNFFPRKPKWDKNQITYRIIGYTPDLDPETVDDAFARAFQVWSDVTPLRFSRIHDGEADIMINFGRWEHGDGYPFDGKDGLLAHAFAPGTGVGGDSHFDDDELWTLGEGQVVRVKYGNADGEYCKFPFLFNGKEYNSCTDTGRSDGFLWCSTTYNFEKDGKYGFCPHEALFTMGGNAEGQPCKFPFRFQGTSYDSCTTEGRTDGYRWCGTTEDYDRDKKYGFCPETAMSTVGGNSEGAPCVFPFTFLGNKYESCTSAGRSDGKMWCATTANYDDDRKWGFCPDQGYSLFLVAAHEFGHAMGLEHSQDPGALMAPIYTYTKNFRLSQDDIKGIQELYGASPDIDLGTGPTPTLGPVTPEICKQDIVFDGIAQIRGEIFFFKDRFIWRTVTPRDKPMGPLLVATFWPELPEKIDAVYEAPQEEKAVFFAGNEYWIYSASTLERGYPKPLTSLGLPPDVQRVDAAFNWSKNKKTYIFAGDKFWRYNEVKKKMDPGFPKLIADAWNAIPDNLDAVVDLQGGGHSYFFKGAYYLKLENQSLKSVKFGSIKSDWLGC
Chain of Neutrophil collagenase (P22894 whole entry): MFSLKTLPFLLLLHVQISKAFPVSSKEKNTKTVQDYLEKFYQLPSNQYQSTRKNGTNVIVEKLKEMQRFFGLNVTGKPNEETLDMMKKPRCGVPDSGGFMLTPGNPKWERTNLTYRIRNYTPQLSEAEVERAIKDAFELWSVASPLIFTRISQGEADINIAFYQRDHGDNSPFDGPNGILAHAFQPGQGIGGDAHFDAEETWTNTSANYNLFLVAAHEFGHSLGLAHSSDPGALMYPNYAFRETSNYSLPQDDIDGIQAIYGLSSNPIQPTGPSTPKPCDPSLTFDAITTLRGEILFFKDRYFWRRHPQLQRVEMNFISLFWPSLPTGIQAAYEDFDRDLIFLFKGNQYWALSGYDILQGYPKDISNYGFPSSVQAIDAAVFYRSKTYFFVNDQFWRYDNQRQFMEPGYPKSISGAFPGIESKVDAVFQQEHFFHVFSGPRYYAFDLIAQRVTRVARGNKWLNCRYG
Chain of Stromelysin-1 (P08254 whole entry): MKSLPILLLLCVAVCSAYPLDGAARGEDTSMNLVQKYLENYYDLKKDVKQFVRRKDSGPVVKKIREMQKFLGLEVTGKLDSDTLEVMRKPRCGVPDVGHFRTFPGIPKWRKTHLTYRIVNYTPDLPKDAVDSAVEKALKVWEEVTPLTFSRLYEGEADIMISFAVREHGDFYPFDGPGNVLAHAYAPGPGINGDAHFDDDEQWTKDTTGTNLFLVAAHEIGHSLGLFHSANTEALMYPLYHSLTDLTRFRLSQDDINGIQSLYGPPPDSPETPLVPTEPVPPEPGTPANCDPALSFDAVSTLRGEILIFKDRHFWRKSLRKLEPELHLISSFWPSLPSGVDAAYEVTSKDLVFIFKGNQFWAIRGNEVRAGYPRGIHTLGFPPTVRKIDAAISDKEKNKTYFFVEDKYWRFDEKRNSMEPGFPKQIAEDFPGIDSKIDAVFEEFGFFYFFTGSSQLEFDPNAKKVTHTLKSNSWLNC
Chain of Matrix metalloproteinase-9 (P14780 whole entry): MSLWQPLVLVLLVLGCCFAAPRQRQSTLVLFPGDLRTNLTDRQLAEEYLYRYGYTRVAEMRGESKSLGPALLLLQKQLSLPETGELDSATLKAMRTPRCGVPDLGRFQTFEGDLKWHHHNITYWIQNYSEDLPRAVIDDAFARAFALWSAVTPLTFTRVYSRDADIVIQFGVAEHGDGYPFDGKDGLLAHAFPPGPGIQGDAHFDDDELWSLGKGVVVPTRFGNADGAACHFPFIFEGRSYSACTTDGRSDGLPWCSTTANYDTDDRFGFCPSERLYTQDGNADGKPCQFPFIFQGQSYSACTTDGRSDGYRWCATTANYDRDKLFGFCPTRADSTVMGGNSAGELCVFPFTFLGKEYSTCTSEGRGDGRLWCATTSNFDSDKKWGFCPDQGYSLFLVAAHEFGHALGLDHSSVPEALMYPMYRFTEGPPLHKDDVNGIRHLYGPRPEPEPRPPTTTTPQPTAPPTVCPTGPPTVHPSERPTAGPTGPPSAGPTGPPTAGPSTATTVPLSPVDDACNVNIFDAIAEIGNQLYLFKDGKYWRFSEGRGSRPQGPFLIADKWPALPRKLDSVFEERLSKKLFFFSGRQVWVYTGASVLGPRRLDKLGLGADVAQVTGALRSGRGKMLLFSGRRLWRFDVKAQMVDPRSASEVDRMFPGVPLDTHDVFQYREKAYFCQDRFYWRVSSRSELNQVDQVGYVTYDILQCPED

O=C(c1ccc(S(=O)(=O)CC(CCCc2ccccc2)C(=O)NO)cc1)c1cc[n+]([O-])cc1 (centres undefined)
IC50 (Interstitial collagenase): 20 µM
IC50 [1]: 0.15 µM
IC50 (Stromelysin-1): 0.35 µM
IC50 [2]: 0.05 µM
IC50 (Neutrophil collagenase): 0.08 µM

O=C(NO)C(CCCc1ccccc1)CS(=O)(=O)c1ccc(C(O)c2ccccc2)cc1 (centres undefined)
IC50 (Interstitial collagenase): 25 µM
IC50 [1]: 2.5 µM
IC50 (Stromelysin-1): 2.5 µM
IC50 [2]: 1.7 µM
IC50 (Neutrophil collagenase): 3 µM

O=C(c1ccccc1)c1ccc(S(=O)(=O)CC(CCCc2ccccc2)C(=O)NO)cc1 (centres undefined)
IC50 ([3]; Homo sapiens): > 100 µM
IC50 (Stromelysin-1): 0.1 µM
inhibition in vivo at 30 mg/kg (Mus musculus): 40%
inhibition in vivo at 10 mg/kg (Rattus norvegicus [4]): 40%
IC50 ([5]; Homo sapiens): > 100 µM
IC50 (Neutrophil collagenase): 0.015 µM
IC50 [6]: > 100 µM
IC50 ([7]; Homo sapiens): > 100 µM
IC50 ([8]; Homo sapiens): > 100 µM

O=C(NO)C(CCCc1ccccc1)CS(=O)(=O)c1ccc(Cc2ccccc2)cc1 (centres undefined)
IC50 (Interstitial collagenase): > 30 µM
IC50 [1]: 0.15 µM
IC50 (Stromelysin-1): > 2 µM
IC50 [2]: 0.2 µM
IC50 (Neutrophil collagenase): 0.3 µM

O=C(c1ccccc1)c1ccc(S(=O)(=O)CC(CCCc2ccccc2)C(=O)O)cc1 (centres undefined)
IC50 (Interstitial collagenase): 20 µM
IC50 [1]: 0.4 µM
IC50 (Stromelysin-1): 1.2 µM
IC50 [2]: 0.8 µM
IC50 (Neutrophil collagenase): 0.3 µM

Cl.O=C(c1ccncc1)c1ccc(S(=O)(=O)CC(CCCc2ccccc2)C(=O)NO)cc1 (centres undefined)
IC50 (Interstitial collagenase): 10 µM
IC50 ([3]; Homo sapiens): > 100 µM
IC50 [1]: 0.015 µM
IC50 (Stromelysin-1): 0.1 µM
inhibition in vivo at 30 mg/kg (Mus musculus): 80%
Plasma level (Rattus norvegicus [9]): 300 ng/mL
inhibition in vivo at 3 mg/kg (Rattus norvegicus [10]): 50%
IC50 [2]: 0.003 µM
IC50 ([5]; Homo sapiens): 37 µM
IC50 (Neutrophil collagenase): 0.003 µM
IC50 [6]: > 100 µM
IC50 ([7]; Homo sapiens): > 100 µM
IC50 ([8]; Homo sapiens): > 100 µM

CNC(=O)[C@@H](NC(=O)C(CC(C)C)C(O)C(=O)NO)C(C)(C)C (single isomer, unassigned)
IC50 [3]: 1 µM
IC50 [11]: 5 µM
inhibition in vivo at 30 mg/kg (Mus musculus): 40%
inhibition in vivo at 10 mg/kg (Rattus norvegicus [4]): 50%
IC50 [5]: 10 µM
IC50 [7]: 10 µM
IC50 [8]: 2 µM
